Assay results from US20120197004A1, “NOVEL ANTI-MICROBIAL PEPTIDOMIMETIC COMPOUNDS AND METHODS TO CALCULATE ANTI-MICROBIAL ACTIVITY” (priority 2006, published 2012).
In brackets after ≈: the same amount, converted by molar mass. Where a SMILES comes first, the peptide text is derived from it. [ ]: non-standard residue; d: D form. ξ: configuration not given here. Oic = O=C(O)[C@@H]1C[C@@H]2CCCC[C@@H]2N1; Tic = O=C(O)[C@@H]1Cc2ccccc2CN1; ξTic = O=C(O)C1Cc2ccccc2CN1; ξOic = O=C(O)C1CC2CCCCC2N1; Orn = NCCC[C@H](N)C(=O)O; βAla = NCCC(=O)O

Tests used:
[1] = Metabolic stability, mouse liver microsomes
[2] = system: Bacillus subtillis (ATCC 43223); conditions: for MIC Bacillus Subtillis: ATCC 43223
[3] = Metabolic stability, human liver microsomes; conditions: for % remaining at time T, Human Liver: 0.5 mg/mL microsomes
[4] = system: Staphylococcus aureus Methicillin/Gentamicin/Tetracycline Resistant (ATCC 33592)
[5] = system: B. melitensis 16M
[6] = Metabolic stability, rat liver microsomes
[7] = Maximum tolerated dose in mouse model; assay type: in vivo; conditions: IP, 125 mg/kg, dosed daily day 1-6
Method: Maximum Tolerated Dose: Six compounds were evaluated in an in vivo mouse model to determine the maximum tolerated dose for each compound by BIOCON, Inc. using the following protocol. For each compound 3 dose concentrations (1/5/25 mg/kg or 5/25/125 mg/kg) were administered IP, 1-2 times per day as split doses. Day 0 weigh the animals, day 1-6 dose daily and observe animals, day 7 weigh, euthanasia followed by necrotize to examine abdominal cavity.

[8] = system: red blood cells; assay: Hemolytic studies; conditions: 100 μM
[9] = Metabolic stability, dog liver microsomes
[10] = Metabolic stability, monkey liver microsomes
[11] = system: Salmonella typhimurium (ATCC 13311); conditions: for MIC Salmonella typhimurium: ATCC 13311
[12] = system: F. tularensis SCHU-S4
[13] = system: Mycobacterium ranae (ATCC 110); conditions: for MIC Mycobacterium ranae / Minimum Inhibitory Concentration Mycobacterium ranae: ATCC 110
[14] = system: Salmonella typhimurium strain LT2; assay: In vivo challenge, gram-negative infection; conditions: Balb/c mice, intraperitoneal challenge 2.5×10^6; 5 mg/kg initial, then 2.5 mg/kg morning and afternoon
[15] = system: mouse cutaneous injury; assay: Mouse skin wound healing model; assay type: in vivo, CD-1 derived male mice; conditions: topical once daily for 10 days; test substances 100 μg/mouse, CGS-21680 10 μg/mouse
Method: In-vivo assays: Selected compounds were evaluated in an in-vivo mouse skin wound healing model by MDS Pharma Services using the following protocol. Groups of CD-1 derived male mice (n=5) weighting 24±2 g were used. Under hexobarbitol (90 mg/kg, IP) anesthesia, the shoulder and back region of each animal was shaved. A sharp punch (ID 12 mm) was applied to remove the skin including panniculus carnosus and adherent tissues. […] The percent closure of the wound (%) was calculated, and wound half-closure time (CT50) was analyzed by linear regression using Graph-Prism (Graph Software USA). One-way ANOVA followed by Dunnett's test was applied for comparison between the treated and its corresponding vehicle groups at each measurement time point. Differences are considered statistically significant at P<0.05.^41

[16] = liver microsomes, 1 μM, T = 60 min

SMILES: CC(=O)NCCC(=O)N[C@@H](Cc1ccccc1)C(=O)N1Cc2ccccc2CC1C(=O)N1C(C(=O)NCCC(=O)N[C@@H](CCCCN)C(=O)N2Cc3ccccc3CC2C(=O)N2C(C(=O)NCCC(=O)N[C@@H](Cc3ccccc3)C(=O)N3Cc4ccccc4CC3C(=O)N3C(C(=O)NCCC(=O)N[C@@H](CCCCN)C(=O)N4Cc5ccccc5CC4C(=O)N[C@@H](CCCCN)C(=O)N[C@@H](CCCCN)C(=O)N[C@@H](CCCCN)C(=O)N[C@@H](CCCCN)C(N)=O)CC4CCCCC43)CC3CCCCC32)CC2CCCCC21 (stereo partly drawn) [FKAB-1Gd1, Ac-βAla-F-Tic-Oic-βAla-K-Tic-Oic-βAla-F-Tic-Oic-βAla-K-Tic-KKKK-CONH2] (Ac-[βAla]F[ξTic][ξOic][βAla]K[ξTic][ξOic][βAla]F[ξTic][ξOic][βAla]K[ξTic]KKKK-NH2)
- metabolic stability T = 60 min mouse [1, 16]: moderate
- remaining at 0.25 h, 1 μM ([1]; mouse, microsomes, pH 7.4): 90%
- remaining at 0.5 h, 1 μM ([1]; mouse, microsomes, pH 7.4): 64%
- remaining at 1 h, 1 μM ([1]; mouse, microsomes, pH 7.4): 53%
- MIC Bacillus Subtillis [2]: 1.00 µM (≈ 2.5 µg/mL)
- remaining at 0.25 h, 1 μM ([3]; human, microsomes, pH 7.4): 94%
- metabolic stability T = 60 min human [3, 16]: high
- % remaining at time T, Human Liver ([3]; second human column (T = 30 min, head not given), 1 μM): 99%
- % remaining at time T, Human Liver ([3]; third human column (T = 60 min, head not given), 1 μM): 97%
- MIC Staphylococcus aureus ME/GM/TC resistant ([4]; ATCC 33592): 10.00 µM (≈ 25 µg/mL)
- Minimum Inhibitory Concentration B. melitensis 16M [5]: >500 µg/mL
- metabolic stability T = 60 min rat [6, 16]: high
- remaining at 0.25 h, 1 μM ([6]; rat, microsomes, pH 7.4): 82%
- remaining at 0.5 h, 1 μM ([6]; rat, microsomes, pH 7.4): 79%
- remaining at 1 h, 1 μM ([6]; rat, microsomes, pH 7.4): 92%
- Maximum Tolerated Dose/Toxicity 125 mg/kg [7]: 5 out 5 animals died
- % hemolysis 100/25 μM (first value) [8]: 24.4%/
- % remaining, Dog Liver T = 15 ([9]; T = 15 min, 1 μM, 0.5 mg/mL microsomes): 84%
- remaining at 0.5 h, 1 μM ([9]; dog, microsomes, pH 7.4): 78%
- remaining at 1 h, 1 μM ([9]; dog, microsomes, pH 7.4): 71%
- metabolic stability T = 60 min dog [9, 16]: Moderate
- metabolic stability T = 60 min monkey [10, 16]: high
- remaining at 0.25 h, 1 μM ([10]; monkey, microsomes, pH 7.4): 90%
- remaining at 0.5 h, 1 μM ([10]; monkey, microsomes, pH 7.4): 87%
- remaining at 1 h, 1 μM ([10]; monkey, microsomes, pH 7.4): 89%
- MIC Salmonella typhimurium [11]: 10 µM (≈ 25 µg/mL)
- Minimum Inhibitory Concentration F. tularensis SCHU-S4 [12]: 500 µg/mL
- MIC Mycobacterium ranae [13]: 1.00 µM (≈ 2.5 µg/mL)
- Minimum Inhibitory Concentration Mycobacterium ranae [13]: 1 µM

SMILES: CC(=O)NCC(=O)N[C@@H](Cc1ccccc1)C(=O)N1Cc2ccccc2C[C@H]1C(=O)N1[C@H](C(=O)NCC(=O)N[C@@H](CCCN)C(=O)N2Cc3ccccc3C[C@H]2C(=O)N2[C@H](C(=O)NCC(=O)N[C@@H](Cc3ccccc3)C(=O)N3Cc4ccccc4C[C@H]3C(=O)N3[C@H](C(=O)NCC(=O)N[C@@H](CCCN)C(=O)N4Cc5ccccc5C[C@H]4C(=O)N[C@@H](CCCN)C(=O)N[C@@H](CCCN)C(=O)N[C@@H](CCCN)C(=O)N[C@@H](CCCN)C(N)=O)C[C@@H]4CCCC[C@@H]43)C[C@@H]3CCCC[C@@H]32)C[C@@H]2CCCC[C@@H]21 [FKAB-1Gp, Ac-GF-Tic-Oic-G-Orn-Tic-Oic-GF-Tic-Oic-G-Orn-Tic-Orn-Orn-Orn-Orn-CONH2] (Ac-GF[Tic][Oic]G[Orn][Tic][Oic]GF[Tic][Oic]G[Orn][Tic][Orn][Orn][Orn][Orn]-NH2)
- p(MIC) Bacillus Subtillis ([2]; -log(MIC)): 6.52
- MIC Bacillus Subtillis [2]: 0.30 µM (≈ 0.707 µg/mL)
- p(MIC) Staphylococcus aureus ME/GM/TC resistant ([4]; -log(MIC)): 5.52
- Actual Bioactivity ([4]; p(MIC) used in Staphylococcus aureus QSAR model): 5.520
- p(MIC) Salmonella typhimurium ([11]; -log(MIC)): 5.52
- MIC Salmonella typhimurium [11]: 3 µM (≈ 7.07 µg/mL)
- morbidity (survival compared to control group) [14]: Accelerated morbidity
- CT50 (wound half-closure time) [15]: 5.7 days
- wound closure Day 3 [15]: 38.8%
- wound closure Day 5 [15]: 51.2%
- wound closure Day 7 [15]: 67.2%
- wound closure Day 9 [15]: 72.8%
- wound closure Day 11 [15]: 81.1%
- Actual Bioactivity [13]: 5.000
- MIC Mycobacterium ranae [13]: 10.00 µM (≈ 23.6 µg/mL)
- Minimum Inhibitory Concentration Mycobacterium ranae [13]: 10 µM
